Earlier results in US20110039841A1, “Novel compounds, their preparation and use” (Novo Nordisk A/S, priority 2004, published 2011).

How the values were obtained:
PPARδ = target: T1, PPARδ (Mus musculus, UniProt P35396); details: high fat diet induced insulin resistant mice and diabetic ob/ob; PNAS 2003, 100, 15924-15929
T1 construct: pharmacological treatment of both high fat diet induced insulin resistant mice and diabetic ob/ob with the potent PPARδ agonist GW501516; host or cells: mice (high fat diet induced insulin resistant; ob/ob), in vivo
T1 sequence (P35396 1-440): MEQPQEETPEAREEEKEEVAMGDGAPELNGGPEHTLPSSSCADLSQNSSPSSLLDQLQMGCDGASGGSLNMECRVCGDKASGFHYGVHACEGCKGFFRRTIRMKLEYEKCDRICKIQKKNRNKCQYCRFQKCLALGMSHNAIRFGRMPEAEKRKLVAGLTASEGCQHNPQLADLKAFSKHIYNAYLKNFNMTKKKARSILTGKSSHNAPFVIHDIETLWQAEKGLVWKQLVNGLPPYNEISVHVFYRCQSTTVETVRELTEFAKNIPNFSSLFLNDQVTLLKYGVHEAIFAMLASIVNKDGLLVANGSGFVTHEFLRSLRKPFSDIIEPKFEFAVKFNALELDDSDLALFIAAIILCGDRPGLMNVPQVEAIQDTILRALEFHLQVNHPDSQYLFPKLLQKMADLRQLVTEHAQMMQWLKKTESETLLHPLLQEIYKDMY

C2C12 muscle cells = details: in vitro, BioChem. Biophys. Acta 2003, 1633, 43-50, Mol. Endocrin. 2003, 17, 2477-2493

Cc1cc(SCc2sc(-c3ccc(C(F)(F)F)cc3)nc2C)ccc1OCC(=O)O [GW501516]
plasma glucose, insulin and insulin sensitivity (PPARδ): lowering of plasma glucose and insulin and improved insulin sensitivity | regulation of genes of lipid metabolism and energy expenditure (C2C12 muscle cells): regulation of genes involved with TG hydrolysis and FFA oxidation
